Test results published in ChEMBL document CHEMBL1129215, “(Dipropylamino)-tetrahydronaphthofurans: centrally acting serotonin agonists and dopamine agonists-antagonists” (Bioorg Med Chem Lett, 1997).
Activity calls are given as the source filed them. The rule behind the calls is not given here.

What was measured:
[1] = target: T1, 5-hydroxytryptamine receptor 1A (Homo sapiens, UniProt P08908); test: Tested in vitro for the inhibition of [3H]8-OH-DPAT binding to 5-hydroxytryptamine 1A receptor, expressed in cloned CHO cells.; type: cell-based
T1 sequence (P08908 whole entry): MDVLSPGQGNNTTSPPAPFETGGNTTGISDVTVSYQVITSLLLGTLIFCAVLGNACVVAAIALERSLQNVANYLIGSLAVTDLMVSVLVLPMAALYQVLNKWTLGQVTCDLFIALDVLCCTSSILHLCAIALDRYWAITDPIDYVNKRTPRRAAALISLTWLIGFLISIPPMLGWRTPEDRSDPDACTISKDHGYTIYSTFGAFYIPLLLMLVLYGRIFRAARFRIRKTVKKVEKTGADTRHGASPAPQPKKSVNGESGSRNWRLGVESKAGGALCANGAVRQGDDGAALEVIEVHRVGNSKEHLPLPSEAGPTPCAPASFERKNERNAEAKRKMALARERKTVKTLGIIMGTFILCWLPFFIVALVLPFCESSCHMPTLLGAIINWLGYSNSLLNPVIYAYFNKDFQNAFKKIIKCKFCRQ

D(4) dopamine receptor [2] = target: T2, D(4) dopamine receptor (Homo sapiens, UniProt P21917); test: (§1) Tested in vitro for the inhibition of [3H]spiperone binding to Dopamine receptor D4, expressed in cloned CHO cells; Inactive; type: cell-based
T2 sequence (P21917 whole entry): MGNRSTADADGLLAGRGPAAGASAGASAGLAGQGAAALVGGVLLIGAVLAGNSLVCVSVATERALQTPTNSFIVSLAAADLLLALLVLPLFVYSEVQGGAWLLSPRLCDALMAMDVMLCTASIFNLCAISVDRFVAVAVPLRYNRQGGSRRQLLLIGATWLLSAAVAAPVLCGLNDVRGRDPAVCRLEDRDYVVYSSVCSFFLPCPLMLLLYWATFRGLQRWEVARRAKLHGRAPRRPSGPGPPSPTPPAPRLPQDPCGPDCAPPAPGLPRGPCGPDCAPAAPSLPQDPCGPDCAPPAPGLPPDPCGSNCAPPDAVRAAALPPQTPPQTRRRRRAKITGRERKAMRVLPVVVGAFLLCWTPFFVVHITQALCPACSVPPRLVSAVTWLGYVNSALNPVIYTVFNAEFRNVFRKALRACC

D(2) dopamine receptor = D(2) dopamine receptor (Rattus norvegicus, UniProt P61169); test: Tested in vitro for the inhibition of [3H]raclopride binding to Dopamine receptor D2 in rat striatum; type: tissue-based
D(2) dopamine receptor, sequence (P61169 whole entry): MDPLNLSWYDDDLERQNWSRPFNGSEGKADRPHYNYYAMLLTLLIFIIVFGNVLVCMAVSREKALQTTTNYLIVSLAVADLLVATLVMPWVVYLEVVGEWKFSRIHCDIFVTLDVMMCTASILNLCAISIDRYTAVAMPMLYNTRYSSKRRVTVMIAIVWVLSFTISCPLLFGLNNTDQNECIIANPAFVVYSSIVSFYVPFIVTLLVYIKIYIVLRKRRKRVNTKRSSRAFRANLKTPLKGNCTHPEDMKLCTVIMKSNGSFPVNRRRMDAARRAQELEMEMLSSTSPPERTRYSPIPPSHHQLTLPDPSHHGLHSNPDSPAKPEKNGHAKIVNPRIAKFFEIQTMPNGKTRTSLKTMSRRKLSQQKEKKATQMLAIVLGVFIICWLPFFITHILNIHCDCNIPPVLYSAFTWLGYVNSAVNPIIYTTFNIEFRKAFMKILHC

Rattus norvegicus [3] = test: The compound was evaluated in vivo for the DOPA accumulation at hemispheres in reserpine pretreated rats at 50 umol/kg; inactive in the highest dose tested; type: functional, organism-based
Rattus norvegicus [4] = test: The compound was evaluated in vivo for the DOPA accumulation at limbic regions at 50 umol/kg; Partial effects in the highest dose tested; type: functional, organism-based; settings: Limbic system
Rattus norvegicus [5] = test: The compound was evaluated in vivo for the DOPA accumulation at corpus striatum at 50 umol/kg; Partial effects in the highest dose tested; type: functional, organism-based
Rattus norvegicus [6] = test: The compound was evaluated in vivo for the 5-HTP accumulation at hemispheres in reserpine pretreated rats; type: functional
Rattus norvegicus [7] = test: The compound was evaluated in vivo for the 5-HTP accumulation at limbic regions; type: functional; settings: Limbic system
Rattus norvegicus [8] = test: The compound was evaluated in vivo for the 5-HTP accumulation at corpus striatum; type: functional
D(3) dopamine receptor = D(3) dopamine receptor (Homo sapiens, UniProt P35462); test: biochemical
D(3) dopamine receptor, sequence (P35462 whole entry): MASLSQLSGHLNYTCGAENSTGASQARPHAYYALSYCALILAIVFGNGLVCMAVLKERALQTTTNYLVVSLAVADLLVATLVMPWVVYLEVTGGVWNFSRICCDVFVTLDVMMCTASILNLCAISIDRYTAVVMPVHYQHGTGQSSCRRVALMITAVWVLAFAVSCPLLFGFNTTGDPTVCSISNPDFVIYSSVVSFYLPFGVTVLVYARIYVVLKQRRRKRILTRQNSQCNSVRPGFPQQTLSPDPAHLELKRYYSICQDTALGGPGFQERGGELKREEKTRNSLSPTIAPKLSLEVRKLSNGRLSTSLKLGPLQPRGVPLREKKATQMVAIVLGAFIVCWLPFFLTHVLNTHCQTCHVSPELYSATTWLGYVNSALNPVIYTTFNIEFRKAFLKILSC
Description: Tested in vitro for the inhibition of [3H]U-86170 binding to Dopamine receptor D3, expressed in cloned CHO cells

[9] = target: T3, D(4) dopamine receptor (Homo sapiens) (UniProt P21917); test: as §1; type: cell-based
T3 sequence (whole entry): T2 sequence (P21917 whole entry)

Rattus norvegicus [10] = test: The compound was evaluated in vivo for the 5-HTP accumulation at corpus striatum at 50 umol/kg; Inactive; type: functional, organism-based
Rattus norvegicus [11] = test: The compound was evaluated in vivo for the 5-HTP accumulation at hemispheres in reserpine pretreated rats at 50 umol/kg; Inactive; type: functional, organism-based
Rattus norvegicus [12] = test: The compound was evaluated in vivo for the 5-HTP accumulation at limbic regions at 50 umol/kg; Inactive; type: functional, organism-based; settings: Limbic system
Rattus norvegicus [13] = test: The compound was evaluated in vivo for the DOPA accumulation at corpus striatum; type: functional
Rattus norvegicus [14] = test: The compound was evaluated in vivo for the DOPA accumulation at hemispheres in reserpine pretreated rats at 50 umol/kg; Inactive; type: functional, organism-based
Rattus norvegicus [15] = test: The compound was evaluated in vivo for the DOPA accumulation at limbic regions; type: functional; settings: Limbic system
Rattus norvegicus [16] = test: The compound was evaluated in vivo for the 5-HTP accumulation at corpus striatum at 13.5 umol/kg; inactive in highest dose tested; type: functional, organism-based
Rattus norvegicus [17] = test: The compound was evaluated in vivo for the 5-HTP accumulation at hemispheres in reserpine pretreated rats at 13.5 umol/kg; inactive in highest dose tested; type: functional, organism-based
Rattus norvegicus [18] = test: The compound was evaluated in vivo for the 5-HTP accumulation at limbic regions at 13.5 umol/kg; inactive in highest dose tested; type: functional, organism-based; settings: Limbic system
Rattus norvegicus [19] = test: The compound was evaluated in vivo for the DOPA accumulation at hemispheres in reserpine pretreated rats at 13.5 umol/kg; inactive in highest dose tested; type: functional, organism-based
D(4) dopamine receptor [20] = target: T2, D(4) dopamine receptor; test: Tested in vitro for the inhibition of [3H]spiperone binding to Dopamine receptor D4, expressed in cloned CHO cells; type: cell-based
Rattus norvegicus [21] = test: The compound was evaluated in vivo for the DOPA accumulation at corpus striatum; partial effect at highest dose of 45 umol/kg; type: functional, organism-based
Rattus norvegicus [22] = test: The compound was evaluated in vivo for the DOPA accumulation at hemispheres in reserpine pretreated rats; partial effect at highest dose of 45 umol/kg; type: functional, organism-based
Rattus norvegicus [23] = test: The compound was evaluated in vivo for the DOPA accumulation at limbic regions; partial effect at highest dose of 45 umol/kg; type: functional, organism-based; settings: Limbic system
[24] = target: Serotonin 2 (5-HT2) receptor (Homo sapiens, UniProt P41595+P28223+P28335); test: Tested in vitro for the inhibition of [3H]ketanserin binding to 5-hydroxytryptamine 2 receptor, expressed in cloned CHO cells.; type: cell-based
Rattus norvegicus [25] = test: The compound was evaluated in vivo for the DOPA accumulation at corpus striatum in non-pretreated rats at 50 umol/kg dose; type: functional
Rattus norvegicus [26] = test: The compound was evaluated in vivo for the DOPA accumulation at limbic regions at 50 umol/kg dose; type: functional, Limbic system
Rattus norvegicus [27] = test: The compound was evaluated in vivo for the locomotpr activity in non-pretreated rats at 50 uM/kg dose; type: functional
Rattus norvegicus [28] = test: The compound was evaluated in vivo for the locomotor activity in non-pretreated rats at 50 uM/kg dose; type: functional
Rattus norvegicus [29] = test: The compound was evaluated in vivo for the DOPA accumulation at corpus striatum at 12.5 umol/kg; Partial effects in the highest dose tested; type: functional, organism-based
Rattus norvegicus [30] = test: The compound was evaluated in vivo for the DOPA accumulation at hemispheres in reserpine pretreated rats at 12.5 umol/kg; Inactive; type: functional, organism-based
Rattus norvegicus [31] = test: The compound was evaluated in vivo for the DOPA accumulation at limbic regions at 12.5 umol/kg; Inactive; type: functional, organism-based; settings: Limbic system
Rattus norvegicus [32] = test: The compound was evaluated in vivo for the 5-HTP accumulation at hemispheres in reserpine pretreated rats at 11 umol/kg; inactive in highest dose tested; type: functional, organism-based
Rattus norvegicus [33] = test: The compound was evaluated in vivo for the 5-HTP accumulation at limbic regions at 11 umol/kg; inactive in highest dose tested; type: functional, organism-based; settings: Limbic system
Rattus norvegicus [34] = test: The compound was evaluated in vivo for the DOPA accumulation at hemispheres in reserpine pretreated rats at 11 umol/kg; inactive in highest dose tested; type: functional, organism-based
Rattus norvegicus [35] = test: The compound was evaluated in vivo for the 5-HTP accumulation at corpus striatum at 11 umol/kg; inactive in highest dose tested; type: functional, organism-based

Compound	Ki [1] [nM]	Ki (D(2) dopamine receptor) [nM]	ED50 (Rattus norvegicus [6]) [µmol/kg]	ED50 (Rattus norvegicus [7]) [µmol/kg]	ED50 (Rattus norvegicus [8]) [µmol/kg]	Ki (D(3) dopamine receptor) [nM]	ED50 (Rattus norvegicus [13]) [µmol/kg]	ED50 (Rattus norvegicus [15]) [µmol/kg]	Ki (D(4) dopamine receptor [20]) [nM]	Ki [24] [nM]	other results
CCCN(CCC)C1CCc2ccc3ccoc3c2C1 (centres undefined)	6.1	32	2.26	3.24	3.18	16.2					Ki (D(4) dopamine receptor [2]): Not Active; Activity (Rattus norvegicus [3]): inactive; Activity (Rattus norvegicus [4]): Weak activity; Activity (Rattus norvegicus [5]): Weak activity
CCCN(CCC)C1CCc2c(ccc3ccoc23)C1 (centres undefined)	210	18				56	0.98	0.74			ED50 [9]: inactive; ED50 (Rattus norvegicus [10]): inactive; ED50 (Rattus norvegicus [11]): inactive; ED50 (Rattus norvegicus [12]): inactive; ED50 (Rattus norvegicus [14]): inactive
CCCN(CCC)C1CCc2c(O)cccc2C1 (centres undefined) [5-OH-DPAT]	344						0.009	0.011			ED50 (Rattus norvegicus [16]): inactive; ED50 (Rattus norvegicus [17]): inactive; ED50 (Rattus norvegicus [18]): inactive; ED50 (Rattus norvegicus [19]): inactive
CCCN(CCC)C1CCc2cccc(O)c2C1 (centres undefined) [8-OH-DPAT]			0.052	0.052	0.063				> 1520		Activity (Rattus norvegicus [21]): Weak activity; Activity (Rattus norvegicus [22]): Weak activity; Activity (Rattus norvegicus [23]): Weak activity
CCCN(CCC)[C@@H]1CCc2c(ccc3ccoc23)[C@@H]1C	120	46				27			55	70	Saline control (Rattus norvegicus [25]): 161%; Saline control (Rattus norvegicus [26]): 121%; Saline control (Rattus norvegicus [27]): 107%
CCCN(CCC)[C@@H]1CCc2c(OC)cccc2[C@@H]1C		15									Saline control (Rattus norvegicus [25]): 370%; Saline control (Rattus norvegicus [26]): 245%; Saline control (Rattus norvegicus [28]): 70%
CCCN(CCC)C1CCc2ccc3occc3c2C1 (centres undefined)	7.8	64	6.08	4.56	2.12	45	13.1	4.47			ED50 [9]: inactive; ED50 (Rattus norvegicus [14]): inactive
CCCN1CC[C@H]2c3c(ccc4ccoc34)CC[C@H]21	3.9	150	0.66	0.41	0.4	323			> 4070	146	Activity (Rattus norvegicus [29]): Weak activity; ED50 (Rattus norvegicus [30]): inactive; ED50 (Rattus norvegicus [31]): inactive
CCCN(CCC)C1CCc2ccc(O)cc2C1 (centres undefined)	47						0.03	0.027	148		ED50 (Rattus norvegicus [32]): inactive; ED50 (Rattus norvegicus [33]): inactive; ED50 (Rattus norvegicus [34]): inactive; ED50 (Rattus norvegicus [35]): inactive
CCCN1CC[C@H]2c3c(O)cccc3CC[C@H]21		769				> 4760			> 4070	1637	
